Measured values taken from patent US20260028410A1, “TREATMENT OF GRAFT VERSUS HOST DISEASES USING ANTI-CD122 ANTIBODY” (FORTE SUBSIDIARY, INC., priority 2023, published 2026).

What was measured:
[1] = tested on: human T and NK cell-mediated aGvHD (xenograft GvHD mouse model); test: Acute GvHD xenograft mouse model, dose-ranging of Antibody 1 (Example 1), survival; format: in vivo, NCG-hIL-15 mice transplanted with human PBMCs; details: Day 14; 60 mcg each twice daily oral D5-D14; n=10
Experimental: A xenograft GvHD mouse model was utilized to study human T and NK cell-mediated aGvHD and the therapeutic effects of anti-CD122 antibody treatment therein. Female NCG-hIL-15 mice were irradiated at a dosage of 100 cGy on Day 1 of the protocol and human peripheral blood mononuclear cells (PBMCs) were transplanted via injection at a dosage of 1×10^7 cells/200 μL/mice via IV administration into the irradiated mice. PBMCs are immune cells that originate in the bone marrow and are secreted into the peripheral circulation forming critical components of the immune system. PBMCs are involved in humoral and cell-mediated immune function. […] Groups of 10 mice were used for each test category. A vehicle group (n=10) served as a negative control with no treatment administered (only a combination of vehicle treatments) following transplant. A positive control group (n=10) of mice treated with 60 mcg each of ruxolitinib twice daily by oral administration was included in the study design. Ruxolitinib-treated animals were treated via oral administration of ruxolitinib twice daily on D5, D6, D7, D8, D9, D10, D11, D12, D13, and D14. Three groups of Antibody 1 treated animals (n=10 for each group) were tested using a) 75 milligram per kilogram of body weight (mpk) of antibody, b) 125 mpk of antibody, and c) 175 mpk of antibody, respectively. […]

[2] = tested on: human T and NK cell-mediated aGvHD (xenograft GvHD mouse model); test: Acute GvHD xenograft mouse model, single vs combination therapy with Antibody 1 (Example 2), survival; format: in vivo, NCG-hIL-15 mice transplanted with human PBMCs; details: ruxolitinib 60 mpk twice-daily oral, Antibody 1 75 mpk once-daily IP, D5-D18
Experimental: (§1) A xenograft GvHD mouse model was utilized to study human T and NK cell-mediated aGvHD and the therapeutic effects of anti-CD122 antibody treatment in single or combination therapy approaches. Female NCG-hIL-15 mice were irradiated at a dosage of 100 cGy on Day 1 of the protocol and human peripheral blood mononuclear cells (PBMCs) were transplanted via injection at a dosage of 1×10^7 cells/200 μL/mice via IV administration into the irradiated mice according to the same xenograft GvHD mouse model design as in Example 1.
Treatment according to 3 different grouping of animals was begun on Day 5 following transplant, as shown in the study design of FIG. 3. Groups of 10 mice were used for each test category. A single treatment group, Group #1, (n=10) received ruxolitinib (at a dosage of 60 mpk) twice-daily by oral administration beginning on Day 5 and ending on Day 18. Days of treatment were D5, D6, D7, D8, D9, D10, D11, D12, D13, D14, D15, D16, D17, and D18. A combination therapy group, Group #2, (n=10) received ruxolitinib (at a dosage of 60 mpk) twice-daily by oral administration beginning on Day 5 and ending on Day 18. Days of treatment using ruxolitinib in Group #2 were D5, D6, D7, D8, D9, D10, D11, D12, D13, D14, D15, D16, D17, and D18. Group #2 animals separately received treatment with Antibody 1 (anti-CD122 antibody as described herein) at a dosage of 75 mpk once-daily by IP administration. Days of treatment using Antibody 1 in Group #2 were D5, D6, D7, D8, D9, D10, D11, D12, D13, D14, D15, D16, D17, and D18. A vehicle group, Group #3, (n=10) served as a negative control with vehicle-only administered following transplant received twice daily oral placebo (vehicle only) beginning on Day 5 and ending on Day 18. Days of oral placebo treatment were D5, D6, D7, D8, D9, D10, D11, D12, D13, D14, D15, D16, D17, and D18. […]
(§2) Day 18 was the end of study day for all treatment groups. Animals from all treatment groups were assessed daily beginning on Day 1 and ending on Day 18 for survival following transplant. […]

[3] = tested on: human T and NK cell-mediated aGvHD (xenograft GvHD mouse model); test: Acute GvHD xenograft mouse model, single vs combination therapy with Antibody 2 or Antibody 3 (Example 5), survival; format: in vivo, NCG-hIL-15 mice transplanted with human PBMCs
Experimental: as §1
Treatment according to 3 different grouping of animals was begun on Day 5 following transplant, as shown in the study design of FIG. 5. Groups of a sufficient number of mice were used for each test category in order to evaluate a significant difference between test groups. A single treatment group, Group #1, received ruxolitinib (at a dosage of 60 mpk) twice-daily by oral administration beginning on Day 5 and ending on Day 18. Days of treatment are D5, D6, D7, D8, D9, D10, D11, D12, D13, D14, D15, D16, D17, and D18. A combination therapy group, Group #2, received ruxolitinib (at a dosage of 60 mpk) twice-daily by oral administration beginning on Day 5 and ending on Day 18. Days of treatment using ruxolitinib in Group #2 were D5, D6, D7, D8, D9, D10, D1I, D12, D13, D14, D15, D16, D17, and D18. Group #2 animals separately receive anti-CD122 antibody therapy (at a dosage of 75 mpk) once-daily by IP administration. Days of treatment using anti-CD122 antibody in Group #2 were D5, D6, D7, D8, D9, D10, D11, D12, D13, D14, D15, D16, D17, and D18. A vehicle group, Group #3, served as a negative control with vehicle-only administered following transplant received twice daily oral placebo (vehicle only) beginning on Day 5 and ending on Day 18. Days of oral placebo treatment were D5, D6, D7, D8, D9, D10, D11, D12, D13, D14, D15, D16, D17, and D18. […]
as §2

[4] = target: T1, Intermediate-affinity heterodimeric IL-βγ receptor (Homo sapiens, UniProt P14784+P31785); details: ligand affinity for IL-βγ receptor (CD122/CD132); cited from earlier work
T1 sequence (P14784 27-551): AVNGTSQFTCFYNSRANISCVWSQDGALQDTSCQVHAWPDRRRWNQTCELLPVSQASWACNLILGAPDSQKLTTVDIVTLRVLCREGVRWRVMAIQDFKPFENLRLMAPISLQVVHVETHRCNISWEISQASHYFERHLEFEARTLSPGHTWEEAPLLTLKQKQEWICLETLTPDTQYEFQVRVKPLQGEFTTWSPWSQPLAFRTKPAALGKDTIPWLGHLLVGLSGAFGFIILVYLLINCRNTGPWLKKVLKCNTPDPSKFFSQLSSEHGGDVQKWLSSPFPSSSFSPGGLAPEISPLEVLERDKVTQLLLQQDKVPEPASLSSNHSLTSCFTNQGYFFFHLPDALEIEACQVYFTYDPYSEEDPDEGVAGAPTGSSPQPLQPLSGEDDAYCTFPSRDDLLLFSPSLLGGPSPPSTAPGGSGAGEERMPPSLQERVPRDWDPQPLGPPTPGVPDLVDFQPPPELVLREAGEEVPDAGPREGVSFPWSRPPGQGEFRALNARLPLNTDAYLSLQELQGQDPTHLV
T1 sequence (P31785 23-369): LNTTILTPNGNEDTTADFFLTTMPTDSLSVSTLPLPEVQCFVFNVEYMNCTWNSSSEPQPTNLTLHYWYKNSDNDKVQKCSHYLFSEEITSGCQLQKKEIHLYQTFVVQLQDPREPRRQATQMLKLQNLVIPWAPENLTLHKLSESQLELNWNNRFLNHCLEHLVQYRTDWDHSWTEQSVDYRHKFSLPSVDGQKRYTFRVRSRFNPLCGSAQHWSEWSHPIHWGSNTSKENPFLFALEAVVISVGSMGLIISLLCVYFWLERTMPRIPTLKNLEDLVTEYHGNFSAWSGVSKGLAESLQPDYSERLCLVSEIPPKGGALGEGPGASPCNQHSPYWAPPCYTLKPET

[5] = target: high-affinity heterotrimer IL-αβγ receptor; details: ligand affinity for IL-αβγ receptor combinations; cited from earlier work

| Molecule | survival at study conclusion [1] [%] | survival rate at the end of the study ([2]; Day 18, n=10) [%] | Average survival time ([2]; up to Day 18, Mean ± SD) [days] | Median survival ([2]; up to Day 18) [days] | survival on Day 18 ([3]; Day 18, ruxolitinib 60 mpk twice-daily oral, anti-CD122 antibody 75 mpk once-daily IP, D5-D18, n=10) [%] | Median survival ([3]; aGvHD xenograft mice, treatment Day 5 to Day 18 (ruxolitinib 60 mpk twice-daily oral; anti-CD122 antibody 75 mpk once-daily IP), followed to Day 18) [days] | Average survival time ([3]; aGvHD xenograft mice, treatment Day 5 to Day 18 (ruxolitinib 60 mpk twice-daily oral; anti-CD122 antibody 75 mpk once-daily IP), followed to Day 18, Mean ± SD) [days] | Kd [4] [nM] | Kd [5] [nM] |
| --- | --- | --- | --- | --- | --- | --- | --- | --- | --- |
| N#CC[C@H](C1CCCC1)n1cc(-c2ncnc3[nH]ccc23)cn1 [ruxolitinib] | 60 | 30 | 16.3 ± 3.4 | 17.5 | 0 | 14 | 13.20 ± 0.93 | – | – |
| IL15: cytokine interleukin 15 | – | – | – | – | – | – | – | ~1 | ~0.01 |
